The values below come from patent EP4768485A1 (Guangzhou Baiyunshan Pharmaceutical Holdings Co., Ltd. …, priority 2023, dated 2025).

By IC50 is commonly meant the concentration at which inhibition is half-maximal. The term Cmax denotes the maximum level reached in the sampled fluid or tissue. One may read the Tmax as the time from dosing to the highest level. One may read the half-life as the time in which the quantity being followed falls by half. Higher therefore signals slow decline.

Data set [1] relates to VRSA VRS 1. Nature of the data set: MIC, agar plate two-fold dilution. The format is cell-based, Staphylococcus aureus. As to conditions: MHA, 37°C, 16-20 hours; for MIC: Staphylococcus aureus. The protocol:
(§1) In this test example, the minimum inhibitory concentration (MIC) of the compound was determined.
(§2) The test drug concentration was set to be within a range of 0.008 µg/mL to 128 µg/mL in a two-fold serial dilution using an agar plate two-fold dilution method. The sample was dissolved in DMSO to prepare a 2 mL solution with a concentration of 1.92 mg/mL. The control group was prepared in sterile distilled water to obtain a concentration of 1.92 mg/mL. 1 mL of the prepared drug solution was added to a sterile culture dish, followed by addition of 14 mL of MHA culture medium at approximately 60°C. After thorough mixing, 1 mL of sterilized distilled water was added for two-fold dilution, resulting in a final drug concentration of 64 µg/mL, 32 µg/mL, 16 µg/mL, 8 µg/mL, 4 µg/mL, 2 µg/mL, 1 µg/mL, 0.5 µg/mL, 0.25 µg/mL, 0.125 µg/mL, 0.06 µg/mL, 0.03 µg/mL, 0.015 µg/mL, and 0.008 µg/mL (wherein the final concentrations of samples 2, 4, and 9 were diluted downward starting from 128 µg/mL), and set aside for later use. The prepared bacterial suspension was inoculated onto drug-containing MHA culture medium with a multi-point inoculator, with an inoculation volume of approximately 10^4 CFU per point. A sterile control group (1 mL DMSO + 14 mL MHA culture medium and 1 mL sterile distilled water + 14 mL MHA culture medium) was set up.

The subject of data set [2] is MRSA NRS 384. Nature of the data set: MIC, agar plate two-fold dilution. The format is cell-based, Staphylococcus aureus. As to conditions: MHA, 37°C, 16-20 hours; for MIC: Staphylococcus aureus. The protocol: as §1, §2
The subject of data set [3] is MSSA ATCC 29213. Nature of the data set: MIC, agar plate two-fold dilution. It is filed as cell-based, Staphylococcus aureus. The conditions noted are these: MHA, 37°C, 16-20 hours; for MIC: Staphylococcus aureus. The protocol:
as §1, §2

Data set [4] deals with EcFabI (Escherichia coli, UniProt P0AEK4). Nature of the data set: FabI enzymatic activity by NADH/NADPH oxidation (fluorescence), EcFabI. The format is biochemical. As to conditions: 9 nmol/L EcFabI; trans-dodecenoyl-CoA and NADH; pH 6.5.
Method: (§3) In this test example, the enzymatic activity was evaluated by monitoring the oxidation of cofactor NADH/NADPH using a microplate reader.
(§4) The compound was dissolved in DMSO and added to a 384-well plate using ECHO665. Serial 3-fold or 4-fold dilutions were prepared to generate 10 dose points with two replicates per concentration, ensuring a final DMSO concentration 1% in each reaction well. Then, a FabI protein solution was added, and the protein was prepared in a buffer containing 100 mmol/L PBS, 0.05% Tween-20, and 150 mmol/L NaCl (pH 6.5), so that the final concentrations of SaFabI and EcFabI proteins were 15 nmol/L and 9 nmol/L, respectively. The prepared 5 µL of 15 nmol/L SaFabI and 9 nmol/L EcFabI were added to a 384-well assay plate, and centrifuged at 1000 rpm for 1 minute. Then, the plate was pre-incubated in a temperature-controlled shaker at 30 °C for 20 minutes. Moreover, substrates trans-octenoyl-CoA, NADPH, trans-dodecenoyl-CoA, and NADH were diluted in a buffer containing 100 mmol/L PBS, 0.05% Tween-20, and 15 0 mmol/L NaCl (pH 6.5) respectively, and their concentrations were adjusted to 300 µmol/L, 300 µmol/L, 600 µmol/L, and 150 µmol/L, respectively. For SaFabI, 5 µL of 300 µmol/L trans-octenoyl-CoA and 5 µL of 300 µmol/L NADPH were added to initiate the reaction. Immediately after initiation, the plate was placed into the microplate reader, and fluorescence signals (Ex 340 nm/Em 460 nm) were recorded every 0.5 minutes for at least 10 minutes. Similarly, 5 µL of 600 µmol/L trans-dodecenoyl-CoA and 5 µL of 150 µmol/L NADH were added to initiate reaction of EcFabI. Immediately after initiation, the plate was immediately placed into the microplate reader, and fluorescence signals (Ex 340 nm/Em 460 nm) were recorded every 0.5 minutes for at least 10 minutes. The reaction rate (fluorescence signal per minute) of each well was calculated from the fluorescence values. The inhibitory effect of the compound on the protein was then calculated based on the reaction rate, and the IC50 value for inhibition of enzyme activity by the compound was determined by fitting the data using GraphPad Prism 6 with log (inhibitor) vs. response variable slope model. The fitting equation is: Y=Bottom + (Top-Bottom)/(1+10^((LogIC50-X)*HillSlope)), wherein Y represents the known percentage of residual enzyme activity, and X represents the known Log concentration of the compound.
Data set [5] has as its system Escherichia coli. ATCC 25923. Nature of the data set: MIC, agar plate two-fold dilution. As to conditions: MHA, 37°C, 16-20 hours; for MIC: Escherichia coli, ATCC25923, read-out: Minimum Inhibitory Concentration MIC, Escherichia coli. ATCC 25923; for Minimum Inhibitory Concentration MIC: Escherichia coli. ATCC 25923. It is filed as cell-based. The protocol:
as §1, §2

Data set [6] concerns Klebsiella pneumoniae ATCC BAA 2472. Nature of the data set: MIC, agar plate two-fold dilution. It is filed as cell-based. How it is done: as §1, §2
Data set [7] concerns Acinetobacter baumannii ARLG 1852. Nature of the data set: MIC, agar plate two-fold dilution. It is filed as cell-based. The protocol: as §1, §2
The target in data set [8] is SaFabI (Staphylococcus aureus, UniProt Q6GI75). Nature of the data set: FabI enzymatic activity by NADH/NADPH oxidation (fluorescence), SaFabI. As to conditions: SaFabI IC50, 15 nmol/L SaFabI; trans-octenoyl-CoA and NADPH; pH 6.5.
Method: as §3, §4
For data set [9], the system named is methicillin-resistant S. aureus (NRS384). Nature of the data set: Systemic infection model in mice, in vivo efficacy. Further details: species or system Balb/c mice. As to conditions: single-dose oral administration, 0.3, 1.0, 3.0 mg/Kg; vs linezolid 3 mg/Kg and Debio-1450. The protocol:
In this test experiment, the in vivo efficacy of the compound in mice was evaluated using a systemic infection model.
Ninety healthy adult male Balb/c mice (purchased from Beijing Vital River Laboratory Animal Technology Co., Ltd. , China) were selected, and divided into 10 groups, including one negative control group (9 mice, inoculated with bacteria and given vehicle), one positive control group (9 mice, vancomycin), one linezolid test group (9 mice), three test groups of high, medium, and low doses (3 ×9 mice) for compound 1a, three test groups of high, medium, and low doses (3 ×9 mice) for Debio-1450, and one test group for Debio-1452 (9 mice). All mice were acclimatized for 3-4 days before testing. The strain inoculated in this test example was methicillin-resistant S. aureus (NRS384), which was administered via tail vein injection at a dose of 1.0 × 10^8 CFU/mouse. The compound was administered 0.5 h post inoculation with the strain. The compound 1a and Debio-1452 were formulated in a vehicle containing 5% DMSO, 30% PEG400, and 65% H2O, while Debio-1450 was formulated in an isotonic glucose solution (freshly prepared) as the vehicle and was administered orally as a single dose. The specific dosing regimen is shown in Table 5: Table 5 Dosing Regimen for Systemic Infection Efficacy Model

Data set [10] in a line: Pharmacokinetic study in rats. The format is in vivo, Sprague-Dawley (SD) rats. The conditions noted are these: oral gavage. How it is done:
In this test experiment, a pharmacokinetic study of the compound in rats was conducted.
Twelve healthy adult female Sprague-Dawley (SD) rats (purchased from Beijing Vital River Laboratory Animal Technology Co., Ltd., China) with an average body weight of about 180-220 g were selected, and divided into four groups (n=3 per group). Two groups were administered via tail vein injection, while the other two groups were administered via oral gavage. Compound 1b was dissolved in a vehicle containing 5% DMSO, 30% PEG400, and 65% H2O, and Debio-1450 was dissolved in physiological saline, both of which were formed into a stable clear solution for later use. Animals were fasted for 12 hours before administration and resumed normal feeding 2 hours post administration. Then, blood samples were collected through the jugular vein at the following time points: 0.083 h, 0.25 h, 0.5 h, 1 h, 2 h, 4 h, 8 h, 24 h (tail vein injection) and 0.25 h, 0.5 h, 1 h, 2 h, 4 h, 8 h, 24 h (oral gavage administration), respectively, with a blood collection volume of about 200-400 µL. Whole blood collected at each time point was immediately transferred into an anticoagulant tube containing K2EDTA, then stored on ice in an insulated container. All samples were centrifuged within 15 minutes at 4600 r/min and 4°C for 5 minutes to separate plasma. The concentration of the compound in the plasma of each rat was determined using LC-MS/MS method, and the pharmacokinetic parameter was calculated from the drug concentration-time profile. Table 4 Oral Pharmacokinetic Parameters of Compound 1b/Debio-1450 In Rats

Data set [11] has as its system Escherichia coli. Nature of the data set: MIC, agar plate two-fold dilution. The format is cell-based. As to conditions: ATCC25923; Escherichia coli. ATCC 25923; MHA, 37°C, 16-20 hours; read-out: Minimum Inhibitory Concentration MIC. How it is done:
as §1, §2

Where [12] appears, read: VRSA, read-out: Minimum Inhibitory Concentration MIC, VRSA VRS 1.
Where [13] appears, read: MRSA|NRS384, read-out: Minimum Inhibitory Concentration MIC, MRSA NRS 384.
[14] abbreviates: ATCC29213|MSSA, read-out: Minimum Inhibitory Concentration MIC, MSSA ATCC 29213.
The mark [15] stands for this setting: Klebsiella pneumoniae, BAA2472, read-out: Minimum Inhibitory Concentration MIC.
[16] abbreviates: Acinetobacter baumannii, ARLG1852, read-out: Minimum Inhibitory Concentration MIC.
Where [17] appears, read: Klebsiella pneumoniae ATCC BAA 2472, MHA, 37°C, 16-20 hours.
Setting [18] is: Acinetobacter baumannii ARLG 1852, MHA, 37°C, 16-20 hours.
Setting [19] is: female, Sprague-Dawley, rat, 10 mg/Kg, plasma.

SMILES strings stand for the structures. Values after ≈ are worked out from the molar mass of the structure shown. Where two headings read alike, the source gives them in different places. A value given as a limit tells only on which side of the number the result lay.

Chain of SaFabI (Q6GI75 whole entry): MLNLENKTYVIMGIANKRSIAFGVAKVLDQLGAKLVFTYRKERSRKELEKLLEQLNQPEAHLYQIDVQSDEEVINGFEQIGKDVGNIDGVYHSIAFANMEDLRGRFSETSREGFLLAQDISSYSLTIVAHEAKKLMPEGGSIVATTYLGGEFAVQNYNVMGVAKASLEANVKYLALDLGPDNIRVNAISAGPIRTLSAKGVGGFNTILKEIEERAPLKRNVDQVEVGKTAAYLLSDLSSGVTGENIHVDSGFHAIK
Chain of EcFabI (P0AEK4 whole entry): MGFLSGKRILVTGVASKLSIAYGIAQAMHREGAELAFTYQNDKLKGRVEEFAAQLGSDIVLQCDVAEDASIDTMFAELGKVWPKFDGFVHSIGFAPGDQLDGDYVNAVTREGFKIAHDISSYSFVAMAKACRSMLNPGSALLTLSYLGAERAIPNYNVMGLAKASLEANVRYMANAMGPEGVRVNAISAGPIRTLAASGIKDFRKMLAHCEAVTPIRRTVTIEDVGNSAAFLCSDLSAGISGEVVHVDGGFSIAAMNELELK

Take `Cc1c(CN(C)C(=O)/C=C/c2cnc3c(c2)C2CC2(N)C(=O)N3)oc2c(C3CC3)cccc12` (single isomer, unassigned) [Compound 2a]: the MIC in data set [1] (setting [12]) is 0.06 µg/mL (≈ 0.136 µM); in [2] (setting [13]), less than 0.008 µg/mL; in [3] (setting [14]), less than 0.008 µg/mL; in [5], 8 µg/mL (≈ 18.1 µM); in data set [6] (setting [15]), 32 µg/mL (≈ 72.3 µM); in [7] (setting [16]), more than 32 µg/mL. Also, the values for the IC50 in [4] and in data set [8] were 6 nM and 10 nM, respectively.
Consider `Cc1c(CN(C)C(=O)/C=C/c2cnc3c(c2)C2CC2(N)C(=O)N3)oc2c(C3CC3)cccc12` (single isomer, unassigned) [Compound 2b], for which the “Minimum Inhibitory Concentration MIC” value in data set [1] (VRSA VRS 1) is 0.06 µg/mL; in data set [2] (MRSA NRS 384) it was less than 0.008 µg/mL; in data set [3] (MSSA ATCC 29213) it was 0.016 µg/mL; in data set [5], more than 16 µg/mL; in [6] (setting [17]), 32 µg/mL; in data set [7] (setting [18]), more than 32 µg/mL. In addition, the IC50 was 13 nM in data set [4] and 12 nM in data set [8].
For the molecule `Cc1c(CN(C)C(=O)/C=C/c2cnc3c(c2)C2CC2(N)C(=O)N3)oc2c(C)cccc12` (stereo not drawn) [Compound 1a], the “Minimum Inhibitory Concentration MIC” value in data set [1] (VRSA VRS 1) was 0.25 µg/mL. Further, the MIC in data set [2] (setting [13]) was less than 0.008 µg/mL; in data set [3] (setting [14]) it was less than 0.008 µg/mL; in data set [5], 4 µg/mL (≈ 9.6 µM); in [6] (setting [15]), 16 µg/mL (≈ 38.4 µM); in data set [7] (setting [16]), more than 32 µg/mL. Besides, the IC50 in data set [4] came out at 4 nM; in data set [8], 5 nM. Further, the “efficacy compared with the reference compounds” value in data set [9] is “markedly superior efficacy to linezolid and better efficacy than Debio-1450”.
For the molecule `Cc1c(CN(C)C(=O)/C=C/c2cnc3c(c2)C2CC2(N)C(=O)N3)oc2ccccc12` (stereo not drawn) [Compound 3a], the MIC is 0.5 µg/mL (≈ 1.24 µM) in [1] (setting [12]); 0.03 µg/mL (≈ 0.0745 µM) in data set [2] (setting [13]); 0.03 µg/mL (≈ 0.0745 µM) in data set [3] (setting [14]); 8 µg/mL (≈ 19.9 µM) in data set [5]; more than 32 µg/mL in data set [6] (setting [15]); more than 32 µg/mL in data set [7] (setting [16]). Also, the IC50 in [4] amounted to 7 nM; in [8] it was 10 nM.
Take `Cc1c(CN(C)C(=O)/C=C/c2cnc3c(c2)C2CC2(N)C(=O)N3)oc2ccccc12` (stereo not drawn) [Compound 3b]: the “Minimum Inhibitory Concentration MIC” value is on record as 0.25 µg/mL in [1] (VRSA VRS 1); 0.016 µg/mL in data set [2] (MRSA NRS 384); 0.016 µg/mL in data set [3] (MSSA ATCC 29213); 8 µg/mL in data set [5]; more than 32 µg/mL in [6] (setting [17]); more than 32 µg/mL in data set [7] (setting [18]).
`Cc1c(CN(C)C(=O)/C=C/c2cnc3c(c2)CCC(=O)N3COP(=O)(O)O)oc2ccccc12` [Debio-1450]: in data set [10] (setting [19]), the highest level (Cmax) was 2210 ng/mL, the time to peak (Tmax) was 0.67 h and the half-life is 4.2 h. For the same molecule, in data set [10] (10 mg/Kg vs tail vein injection), the F was found to be 97%.
As to `Cc1c(CN(C)C(=O)/C=C/c2cnc3c(c2)CCC(=O)N3)oc2ccccc12` [Debio-1452, reference compound], the MIC in data set [1] (VRSA VRS 1, read-out: Minimum Inhibitory Concentration MIC) is 0.12 µg/mL (≈ 0.32 µM); in data set [2] (MRSA NRS 384, read-out: Minimum Inhibitory Concentration MIC), less than 0.008 µg/mL; in data set [3] (MSSA ATCC 29213, read-out: Minimum Inhibitory Concentration MIC), less than 0.008 µg/mL; in data set [6] (BAA2472, Klebsiella pneumoniae ATCC BAA 2472, MHA, 37°C, 16-20 hours, read-out: Minimum Inhibitory Concentration MIC), more than 8 µg/mL; in data set [7] (ARLG1852, Acinetobacter baumannii ARLG 1852, MHA, 37°C, 16-20 hours, read-out: Minimum Inhibitory Concentration MIC) it was more than 8 µg/mL; in data set [11] it was 4 µg/mL (≈ 10.7 µM). Moreover, the IC50 in [4] stood at 3 nM; in data set [8], 2 nM.
